Laboratory results published in ChEMBL document CHEMBL1201862, “PubChem BioAssay data set” (2004).
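Five concentrations, 48 hours, 96-well plates. GI50: concentration for 50% inhibition of growth.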 Activity calls are given as the source filed them. Cut-off read from the data, not from the text of the source: active = GI50 up to about 1.1 µM and inactive = higher.

Assays:
Assay in all cases: NCI anticancer screen, dose series, 48 h
DU-145 = tested on: DU-145
Hs-578T = tested on: Hs-578T
786-0 = tested on: 786-0
SNB-19 = tested on: SNB-19
EKVX = tested on: EKVX
SF-539 = tested on: SF-539
K562 = tested on: K562
HT-29 = tested on: HT-29
HCT-15 = tested on: HCT-15
KM12 = tested on: KM12
SK-MEL-5 = tested on: SK-MEL-5
SK-MEL-2 = tested on: SK-MEL-2
A498 = tested on: A498
PC-3 = tested on: PC-3
NCI-H522 = tested on: NCI-H522
NCI/ADR-RES = tested on: NCI/ADR-RES
UACC-257 = tested on: UACC-257
CCRF-CEM = tested on: CCRF-CEM
SF-295 = tested on: SF-295
LOX IMVI = tested on: LOX IMVI
RPMI-8226 = tested on: RPMI-8226
MDA-MB-435 = tested on: MDA-MB-435
RXF 393 = tested on: RXF 393
MDA-MB-231 = tested on: MDA-MB-231
HCC 2998 = tested on: HCC 2998
COLO 205 = tested on: COLO 205
UO-31 = tested on: UO-31
OVCAR-8 = tested on: OVCAR-8
M14 = tested on: M14
MOLT-4 = tested on: MOLT-4
BT-549 = tested on: BT-549
ACHN = tested on: ACHN
SN12C = tested on: SN12C
UACC-62 = tested on: UACC-62
OVCAR-3 = tested on: OVCAR-3
MDA-N = tested on: MDA-N
NCI-H460 = tested on: NCI-H460
CAKI-1 = tested on: CAKI-1
Malme-3M = tested on: Malme-3M
U-251 = tested on: U-251
SF-268 = tested on: SF-268
HL-60 = tested on: HL-60
OVCAR-5 = tested on: OVCAR-5
SK-OV-3 = tested on: SK-OV-3
SR = tested on: SR
A549 = tested on: A549
NCI-H23 = tested on: NCI-H23
SW-620 = tested on: SW-620
TK-10 = tested on: TK-10
HCT-116 = tested on: HCT-116
IGROV-1 = tested on: IGROV-1
HOP-62 = tested on: HOP-62
OVCAR-4 = tested on: OVCAR-4
HOP-92 = tested on: HOP-92
SK-MEL-28 = tested on: SK-MEL-28
MCF7 = tested on: MCF7
T47D = tested on: T47D
SNB-75 = tested on: SNB-75
NCI-H226 = tested on: NCI-H226

## CCOC(=O)CCC(NC(=O)OCc1ccccc1)C(=O)NNC(=O)OC(C)(C)C (stereo unspecified)
DU-145
  GI50: > 100 µM (inactive)
Hs-578T
  GI50: > 100 µM (inactive)
786-0
  GI50: > 100 µM (inactive)
SNB-19
  GI50: > 100 µM (inactive)
EKVX
  GI50: > 100 µM (inactive)
SF-539
  GI50: > 100 µM (inactive)
K562
  GI50: > 100 µM (inactive)
HT-29
  GI50: > 100 µM (inactive)
HCT-15
  GI50: > 100 µM
KM12
  GI50: > 100 µM (inactive)
SK-MEL-5
  GI50: > 100 µM (inactive)
SK-MEL-2
  GI50: > 100 µM (inactive)
A498
  GI50: > 100 µM (inactive)
PC-3
  GI50: > 100 µM (inactive)
NCI-H522
  GI50: > 100 µM (inactive)
NCI/ADR-RES
  GI50: > 100 µM (inactive)
UACC-257
  GI50: > 100 µM (inactive)
CCRF-CEM
  GI50: > 100 µM (inactive)
SF-295
  GI50: > 100 µM (inactive)
LOX IMVI
  GI50: > 100 µM (inactive)
RPMI-8226
  GI50: > 100 µM (inactive)
MDA-MB-435
  GI50: > 100 µM (inactive)
RXF 393
  GI50: > 100 µM (inactive)
MDA-MB-231
  GI50: 41.7 µM (inactive)
HCC 2998
  GI50: > 100 µM (inactive)
COLO 205
  GI50: > 100 µM (inactive)
UO-31
  GI50: > 100 µM (inactive)
OVCAR-8
  GI50: > 100 µM (inactive)
M14
  GI50: > 100 µM (inactive)
MOLT-4
  GI50: > 100 µM (inactive)
BT-549
  GI50: > 100 µM (inactive)
ACHN
  GI50: > 100 µM (inactive)
SN12C
  GI50: > 100 µM (inactive)
UACC-62
  GI50: > 100 µM (inactive)
OVCAR-3
  GI50: > 100 µM (inactive)
MDA-N
  GI50: > 100 µM (inactive)
NCI-H460
  GI50: > 100 µM (inactive)
CAKI-1
  GI50: > 100 µM (inactive)
Malme-3M
  GI50: > 100 µM (inactive)
U-251
  GI50: > 100 µM (inactive)
SF-268
  GI50: > 100 µM (inactive)
HL-60
  GI50: > 100 µM (inactive)
OVCAR-5
  GI50: > 100 µM (inactive)
SK-OV-3
  GI50: > 100 µM (inactive)
SR
  GI50: > 100 µM (inactive)
A549
  GI50: > 100 µM (inactive)
NCI-H23
  GI50: > 100 µM (inactive)
SW-620
  GI50: > 100 µM (inactive)
TK-10
  GI50: > 100 µM (inactive)
HCT-116
  GI50: > 100 µM (inactive)
IGROV-1
  GI50: > 100 µM (inactive)
HOP-62
  GI50: > 100 µM (inactive)
OVCAR-4
  GI50: > 100 µM (inactive)
HOP-92
  GI50: > 100 µM (inactive)
SK-MEL-28
  GI50: > 100 µM (inactive)
MCF7
  GI50: > 100 µM (inactive)
T47D
  GI50: > 100 µM (inactive)
SNB-75
  GI50: > 100 µM (inactive)

## COc1nc(N=P(c2ccccc2)(c2ccccc2)c2ccccc2)cc(=O)n1C
DU-145
  GI50: > 100 µM (inactive)
Hs-578T
  GI50: > 100 µM (inactive)
786-0
  GI50: > 100 µM (inactive)
SNB-19
  GI50: > 100 µM (inactive)
EKVX
  GI50: > 100 µM (inactive)
SF-539
  GI50: > 100 µM (inactive)
K562
  GI50: > 100 µM (inactive)
HT-29
  GI50: > 100 µM (inactive)
HCT-15
  GI50: > 100 µM
KM12
  GI50: > 100 µM (inactive)
SK-MEL-5
  GI50: > 100 µM (inactive)
SK-MEL-2
  GI50: > 100 µM (inactive)
A498
  GI50: > 100 µM (inactive)
PC-3
  GI50: > 100 µM (inactive)
NCI-H522
  GI50: > 100 µM (inactive)
NCI/ADR-RES
  GI50: > 100 µM (inactive)
UACC-257
  GI50: > 100 µM (inactive)
CCRF-CEM
  GI50: > 100 µM (inactive)
SF-295
  GI50: > 100 µM (inactive)
LOX IMVI
  GI50: > 100 µM (inactive)
RPMI-8226
  GI50: > 100 µM (inactive)
MDA-MB-435
  GI50: > 100 µM (inactive)
RXF 393
  GI50: > 100 µM (inactive)
MDA-MB-231
  GI50: > 100 µM (inactive)
HCC 2998
  GI50: > 100 µM (inactive)
COLO 205
  GI50: > 100 µM (inactive)
NCI-H226
  GI50: > 100 µM (inactive)
UO-31
  GI50: > 100 µM (inactive)
OVCAR-8
  GI50: > 100 µM (inactive)
M14
  GI50: > 100 µM (inactive)
MOLT-4
  GI50: > 100 µM (inactive)
BT-549
  GI50: > 100 µM (inactive)
ACHN
  GI50: > 100 µM (inactive)
SN12C
  GI50: > 100 µM (inactive)
UACC-62
  GI50: > 100 µM (inactive)
OVCAR-3
  GI50: > 100 µM (inactive)
MDA-N
  GI50: > 100 µM (inactive)
NCI-H460
  GI50: > 100 µM (inactive)
CAKI-1
  GI50: > 100 µM (inactive)
U-251
  GI50: > 100 µM (inactive)
SF-268
  GI50: > 100 µM (inactive)
HL-60
  GI50: > 100 µM (inactive)
OVCAR-5
  GI50: > 100 µM (inactive)
SK-OV-3
  GI50: > 100 µM (inactive)
SR
  GI50: 0.0233 µM (active)
A549
  GI50: > 100 µM (inactive)
NCI-H23
  GI50: > 100 µM (inactive)
SW-620
  GI50: > 100 µM (inactive)
TK-10
  GI50: > 100 µM (inactive)
HCT-116
  GI50: > 100 µM (inactive)
IGROV-1
  GI50: > 100 µM (inactive)
HOP-62
  GI50: > 100 µM (inactive)
OVCAR-4
  GI50: > 100 µM (inactive)
HOP-92
  GI50: > 100 µM (inactive)
SK-MEL-28
  GI50: > 100 µM (inactive)
MCF7
  GI50: > 100 µM (inactive)
T47D
  GI50: > 100 µM (inactive)
SNB-75
  GI50: 54.8 µM (inactive)
